Measurements published in patent EP2036888A1, “Naphthyl-substituted sulfonamides” (Laboratorios del Dr. Esteve S.A., priority 2007, dated 2009).

Target: 5HT6 human recombinant receptor (Homo sapiens, UniProt P50406)
Assay: Binding with serotonin receptor 5HT6 ([3H]-LSD radioligand displacement, HEK-293 cell membranes)
Settings: for inhibition at 0.01 µM: read-out: Binding % Inhibition 10 nM; for inhibition at 0.1 µM: read-out: Binding % Inhibition 100 nM

5HT6 human recombinant receptor, sequence (P50406 whole entry): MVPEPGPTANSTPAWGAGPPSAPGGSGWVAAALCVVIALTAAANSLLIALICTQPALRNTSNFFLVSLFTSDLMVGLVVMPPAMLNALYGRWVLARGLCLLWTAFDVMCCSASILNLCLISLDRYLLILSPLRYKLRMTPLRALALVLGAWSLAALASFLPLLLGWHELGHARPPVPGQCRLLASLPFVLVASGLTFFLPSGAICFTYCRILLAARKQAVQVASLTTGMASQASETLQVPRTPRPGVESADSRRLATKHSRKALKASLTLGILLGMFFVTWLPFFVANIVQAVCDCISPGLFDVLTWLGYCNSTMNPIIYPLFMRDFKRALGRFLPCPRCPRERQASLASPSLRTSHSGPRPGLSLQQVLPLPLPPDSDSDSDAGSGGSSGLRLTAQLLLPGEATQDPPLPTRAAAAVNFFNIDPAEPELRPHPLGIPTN

Row | SMILES | inhibition at 0.01 µM | inhibition at 0.1 µM | Ki
1 | CN(C)CCc1c[nH]c2ccc(NS(=O)(=O)c3ccc4cc(Cl)ccc4c3)cc12 [Example 1, 6-chloro-N-(3-(2-(dimethylamino)ethyl)-1H-indol-5-yl)naphthalene-2-sulfonamide] | 73.9% | 84.4% | –
2 | CN(C)CCc1c[nH]c2ccc(NS(=O)(=O)c3cccc4c(N(C)C)cccc34)cc12 [Example 2] | 75.1% | 86.3% | 5.3 nM
3 | Cc1ccc(S(=O)(=O)Nc2ccc3[nH]cc(CCN(C)C)c3c2)c2ccccc12 [Example 3, N-(3-(2-(dimethylamino)ethyl)-1H-indol-5-yl)-4-methylnanhthalene-1-sulfonamide] | 80.3% | 88.5% | 9.8 nM
4 | CN(C)CCc1c[nH]c2ccc(NS(=O)(=O)c3ccc4ccc(Cl)cc4c3)cc12 [Example 4, 7-chloro-N-(3-(2-(dimethylamino)ethyl)-1H-indol-5-yl)naphthalene-2-sulfonamide] | 81.2% | 89.3% | 3.9 ± 0.4 nM
5 | CN(C)CCc1c[nH]c2ccc(NS(=O)(=O)c3ccc4cc(N(C)C)ccc4c3)cc12 [Example 5, 6-(dimethylamino)-N-(3-(2-(dimethylamino)ethyl)-1H-indol-5-yl)naphthalene-2-sulfonamide] | 69.8% | 88.5% | 11.9 ± 3.3 nM
6 | CN(C)CCc1c[nH]c2ccc(NS(=O)(=O)c3cccc4cccc(Cl)c34)cc12 [Example 6, 8-chloro-N-(3-(2-(dimethylamino)ethyl)-1H-indol-5-yl)naphthalene-1-sulfonamide] | 68.4% | 88.4% | 2.1 nM
7 | CN(C)CCc1c[nH]c2ccc(NS(=O)(=O)c3ccc(F)c4ccccc34)cc12 [Example 7, N-(3-(2-(dimethylamino)ethyl)-1H-indol-5-yl)-4-fluoronaphthalene-1-sulfonamide] | 81.5% | 95.4% | 5.2 nM
8 | CN(C)CCc1cn(C)c2ccc(NS(=O)(=O)c3ccc4c(Cl)cccc4c3)cc12 [Example 8, 5-chloro-N-(3-(2-(dimethylamino)ethyl)-1-methyl-1H-indol-5-yl)naphthalene-2-sulfonamide] | 64.5% | 93.4% | 13.4 ± 0.9 nM
9 | Cn1cc(CCN2CCCC2)c2cc(NS(=O)(=O)c3cccc4ccccc34)ccc21 [Example 9, N-(1-methyl-3-(2-(pyrrolidin-1-yl)ethyl)-1H-indol-5-yl)naphthalene-1-sulfonamide] | 58.1% | 86.8% | 42.5 ± 13.9 nM
10 | CN(C)CCc1c[nH]c2ccc(N(C)S(=O)(=O)c3cccc4ccccc34)cc12 [Example 10, N-(3-(2-(dimethylamino)ethyl)-1H-indol-5-yl)-N-methylnaphthalene-1-sulfonamide] | 79.2% | 92.7% | 9.7 ± 4.5 nM
11 | CN(C)CCc1c[nH]c2ccc(N(C)S(=O)(=O)c3ccc4ccccc4c3)cc12 [Example 11, N-(3-(2-(dimethylamino)ethyl)-1H-indol-5-yl)-N-methylnaphthalene-2-sulfonamide] | 73.1% | 93.1% | 12.3 ± 3.7 nM
12 | CN(C)CCc1c[nH]c2ccc(N(C)S(=O)(=O)c3cccc4c(Cl)cccc34)cc12 [Example 12, 5-chloro-N-(3-(2-(dimethylamino)ethyl)-1H-indol-5-yl)-N-methylnaphthalene-1-sulfonamide] | 51.6% | 85.4% | 48.7 ± 6.9 nM
13 | CN(C)CCc1c[nH]c2ccc(N(C)S(=O)(=O)c3ccc4c(Cl)cccc4c3)cc12 [Example 13, 5-chloro-N-(3-(2-(dimethylamino)ethyl)-1H-indol-5-yl)-N-methylnaphthalene-2-sulfonamide] | 55.5% | 87.6% | 18.1 ± 2.6 nM
14 | COc1cccc2c(S(=O)(=O)Nc3ccc4[nH]cc(CCN(C)C)c4c3)cccc12 [Example 14, N-(3-(2-(dimethylamino)ethyl)-1H-indol-5-yl)-5-methoxynanhthalene-1-sulfonamide] | 59.6% | 88.1% | 18.6 nM
15 | CN(C)CCc1c[nH]c2ccc(NS(=O)(=O)c3cccc4c(O)cccc34)cc12 [Example 15, N-(3-(2-(dimethylamino)ethyl)-1H-indol-5-yl)-5-hydroxynaphthalene-1-sulfonamide] | 91.9% | 94.6% | 0.5 nM
16 | COc1ccc2ccc(S(=O)(=O)Nc3ccc4[nH]cc(CCN(C)C)c4c3)cc2c1 [Example 16, N-(3-(2-(dimethylamino)ethyl)-1H-indol-5-yl)-7-methoxynaphthalene-2-sulfonamide] | 70% | 89.3% | 5 ± 1.3 nM
17 | CN(C)CCc1c[nH]c2ccc(NS(=O)(=O)c3ccc4ccc(O)cc4c3)cc12 [Example 17, N-(3-(2-(dimethylamino)ethyl)-1 H-indol-5-yl)-7-hydroxynaphthalene-2-sulfonamide] | 69.9% | 91.5% | 6.9 ± 0.2 nM
18 | COc1cccc2cccc(S(=O)(=O)Nc3ccc4[nH]cc(CCN(C)C)c4c3)c12 [Example 18, N-(3-(2-(dimethylamino)ethyl)-1H-indol-5-yl)-8-methoxynaphthalene-1-sulfonamide] | 69.2% | 88.4% | 8.3 nM
19 | CN(C)CCc1c[nH]c2ccc(NS(=O)(=O)c3cccc4cccc(O)c34)cc12 [Example 19, N-(3-(2-(dimethylamino)ethyl)-1H-indol-5-yl)-8-hydroxynaphthalene-1-sulfonamide] | 53.8% | 85.9% | 24.6 ± 2.1 nM
20 | COc1ccc(S(=O)(=O)Nc2ccc3[nH]cc(CCN(C)C)c3c2)c2ccccc12 [Example 20, N-(3-(2-(dimethylamino)ethyl)-1H-indol-5-yl)-4-methoxynaphthalene-1-sulfonamide] | 53.3% | 81.8% | 8.5 ± 1.7 nM
